Assay results reported in publication PMC7203344, “Sirtuin 1 Inhibiting Thiocyanates (S1th)—A New Class of Isotype Selective Inhibitors of NAD^+ Dependent Lysine Deacetylases” (Frontiers in Oncology, 2020).
Several values for one entry are separate records, joined by “and”; a condition that tells them apart may be missing. Identical values can stand only once. Entries after “also recorded” stand apart in the source; their conditions may differ.

What was measured:
[1] = biological target: T1, Sirt1 (Homo sapiens, UniProt Q96EB6); test: Fluorescent thermal shift assay (FTSA), Sirt1; format: binding
T1 construct: made in house; host or cells: E. coli BL21 Star (DE3)
T1 sequence (Q96EB6 134-747): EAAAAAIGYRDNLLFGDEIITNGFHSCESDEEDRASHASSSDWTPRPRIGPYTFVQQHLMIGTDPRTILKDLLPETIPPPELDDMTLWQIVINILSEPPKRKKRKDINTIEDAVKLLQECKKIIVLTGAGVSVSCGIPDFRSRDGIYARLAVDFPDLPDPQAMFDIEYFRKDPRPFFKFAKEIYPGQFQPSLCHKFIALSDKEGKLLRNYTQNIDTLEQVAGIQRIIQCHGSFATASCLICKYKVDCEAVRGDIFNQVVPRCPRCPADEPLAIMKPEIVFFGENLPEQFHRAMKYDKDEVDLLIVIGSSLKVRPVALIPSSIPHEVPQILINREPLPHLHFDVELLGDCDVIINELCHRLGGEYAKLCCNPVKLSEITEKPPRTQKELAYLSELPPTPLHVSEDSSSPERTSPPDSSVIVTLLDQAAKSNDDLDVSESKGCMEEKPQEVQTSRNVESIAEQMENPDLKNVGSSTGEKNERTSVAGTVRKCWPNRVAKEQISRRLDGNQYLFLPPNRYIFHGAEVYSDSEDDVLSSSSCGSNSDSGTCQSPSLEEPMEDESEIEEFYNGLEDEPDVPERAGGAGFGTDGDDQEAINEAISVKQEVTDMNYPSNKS
Procedure: In a 96-well plate (Hard-Shell® PCR-plates, 96-well, thin-wall, BioRAD, USA) 14 μL Sirt1_134−747 in assay buffer (0.3 mg/mL final assay concentration, 50 mM Tris/HCl, 137 mM NaCl, 2.7 mM KCl, 1 mM MgCL2, pH 8.0) were mixed with 1 μL inhibitor in DMSO (100 μM) or DMSO [final assay concentration 5% (v/v)] as a control and 5 μL SyproOrange (1:100 in assay buffer). The fluorescence intensity was monitored during a constant increase of temperature from 20 to 95°C, 1 K per 20 s, using a real-time-PCR-machine (C1000 TouchTM Thermal Cycler, CFX96TM Real-Time System, BioRAD, USA). Melting temperatures were calculated via GraphPad Prism according to a published procedure ([60]).

[2] = biological target: T1, Sirt1; test: Homogeneous ZMAL-based fluorescence assay, Sirt1; format: biochemical
Procedure: (§1) Recombinant human Sirt5_37−310 was purchased readily in Tris Buffer [25 mM Tris, 100 mM NaCl, 5 mM DTT, 10% glycerol (v/v)] from Enzo Life Sciences (NY, USA). Human Sirt3_118−395 was expressed and purified as described previously ([54]). For expression of human Sirt1_134−747 and Sirt2_56−356 chemically competent cells of E. coli BL21 Star (DE3) were transformed with the expression vectors pET30S-hSirt1_134−747 or pET30S-hSirt2_56−356. Bacteria were grown at 37°C in 2×YT medium supplemented with 50 μg·mL^−1 of kanamycin to an OD600 of 0.6. Then isopropyl-β-D-1-thiogalactopyranoside (IPTG) was added to a final concentration of 1 mM to induce gene expression. After further cultivation at 20°C for 12 h, the cells were harvested by centrifugation for 15 min at 5,000 g. The cells were resuspended in lysis buffer [100 mM Tris/HCl buffer at pH 8.0, 150 mM NaCl and 10% (v/v) glycerol] and disrupted by ultrasonication (Branson Digital Sonifier 250) at 70% amplitude for 10 min (3 s working, 10 s pause). The crude extract was cleared by centrifugation at 100,000 g for 1 h, and the supernatant was loaded onto a Strep-Tactin Superflow cartridge (5 ml bed volume, IBA Lifescience, Germany). Target proteins were eluted with lysis buffer containing 5 mM D-Desthiobiotin (IBA Lifescience, Germany) and further separated by size-exclusion chromatography (Superdex S200 26/60, GE Healthcare, IL, USA) equilibrated in Tris/HCl buffer (20 mM, 150 mM NaCl, pH 8.0). Pure protein was concentrated by ultrafiltration, flash-frozen in liquid nitrogen and stored at −80°C until further use. Identity as well as purity were verified by SDS-PAGE ([55]) and protein concentration was determined by the bicinchoninic acid (BCA) method, using bovine serum albumin (BSA) as a standard ([56]). Deacetylase activity was confirmed to be NAD^+-dependent and could be inhibited with the physiological sirtuin inhibitor nicotinamide.
(§2) All compounds were tested in the trypsin-coupled high-throughput ZMAL-assay in black 96-well plates (OptiPlateTM−96F, black, 96 well, Pinch bar design, PerkinElmer, USA), using ZMAL (Z-Lys(acetyl)-AMC) as a substrate ([57]). Sirt1_134−747, Sirt2_56−356, and Sirt3_118−395 were mixed with 5 μL substrate (10.5 μM final assay concentration, diluted from a […] stock in DMSO) and 3 μL Inhibitor in DMSO at various concentrations or DMSO as a control [final DMSO concentration 5% (v/v)]. The mixture was supplemented with assay buffer (50 mM Tris/HCl, 137 mM NaCl, 2.7 mM KCl, 1 mM MgCL2, pH 8.0) to a total volume of 55 μL. Enzyme concentration was adjusted to get a final conversion of 20–30%. Addition of 5 μL NAD^+ (6 mM in assay buffer, final assay concentration of 500 μM) initiated the catalytic reaction and the plates were incubated at 37°C for 4 h with agitation at 140 rpm. The catalytic reaction was stopped by addition of 60 μL stop solution [50 mM Tris, 100 mM NaCl, 6.7% (V/V) DMSO, 5.5 U/μL trypsin, 8 μM nicotinamide, pH 8.0]. The plate was again incubated at 37°C and 140 rpm for 20 min to release free AMC from the deacetylated substrate by trypsin digestion. Afterwards, fluorescence intensity was measured in a microplate reader (λEx = 390 nm, λEm = 460 nm, BMG POLARstar Optima, BMG Labtech, Germany). An enzyme-free blank control and a 100% conversion control containing AMC instead of ZMAL were measured in addition. Inhibition was calculated in % in relation to a DMSO control after blank signal subtraction and IC50 values were determined using a non-linear regression to fit the dose-response curve with OriginPro 9G (OriginLab, USA). Pre-tests as well as IC50 determination was carried out at least twice in duplicates.

[3] = biological target: T2, human Sirt2 (Homo sapiens, UniProt Q8IXJ6); test: Homogeneous ZMAL-based fluorescence assay, Sirt2; format: biochemical
T2 construct: made in house; host or cells: E. coli BL21 Star (DE3)
T2 sequence (Q8IXJ6 56-356): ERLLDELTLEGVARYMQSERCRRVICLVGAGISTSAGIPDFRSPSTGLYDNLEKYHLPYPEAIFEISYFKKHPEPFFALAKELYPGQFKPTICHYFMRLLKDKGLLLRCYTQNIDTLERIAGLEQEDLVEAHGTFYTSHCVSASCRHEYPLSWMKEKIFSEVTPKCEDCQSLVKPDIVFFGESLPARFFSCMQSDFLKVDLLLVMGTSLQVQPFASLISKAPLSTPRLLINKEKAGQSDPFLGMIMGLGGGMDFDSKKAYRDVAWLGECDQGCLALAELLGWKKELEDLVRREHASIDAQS
Procedure: as §1, §2

[4] = biological target: T3, human Sirt3 (Homo sapiens, UniProt Q9NTG7); test: Homogeneous ZMAL-based fluorescence assay, Sirt3; format: biochemical
T3 construct: Human Sirt3_118−395 was expressed and purified as described previously; made in house
T3 sequence (Q9NTG7 118-395): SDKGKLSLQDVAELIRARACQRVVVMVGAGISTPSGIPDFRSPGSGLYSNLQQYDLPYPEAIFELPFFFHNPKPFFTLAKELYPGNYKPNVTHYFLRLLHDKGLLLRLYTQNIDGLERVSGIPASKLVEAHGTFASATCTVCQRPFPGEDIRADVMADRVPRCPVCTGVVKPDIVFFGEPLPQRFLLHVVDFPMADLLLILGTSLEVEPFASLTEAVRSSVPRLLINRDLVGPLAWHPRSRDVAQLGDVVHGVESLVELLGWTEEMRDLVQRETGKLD
Procedure: as §1, §2

[5] = system: γH2AX/H2AX levels in MEF cells; test: γH2AX level determination by western blot; format: cell-based, mouse; settings: 48 h, EX-527 10 μM, S1th 10 30 μM, S1th 12 20 μM, S1th 13 12 μM, SirReal2 30 μM
Procedure: Sirt1 WT and KO MEFS cells were treated with 10 μM EX-527, 12 μM S1th 13 (6), 20 μM S1th 12 (5), 30 μM S1th 10 (7) and 30 μM SirReal2 [Sirt2 inhibitor, synthesized according to ([62])] for 48 h. Oxidative stress was induced using 10 μM Camptothecin 2 h. Whole-cell extracts were performed according to the Dignam protocol ([63]). Primary antibodies used for the western blot were anti-H2AX and anti-γH2AX (ab11175 and ab2893 resp., Abcam, UK). Densiometric analysis of the western blots was performed with Quantity One software (Bio-Rad Laboratories, Inc., USA).

[6] = 2nd round of in vitro screening

NC(=O)c1ccc[n+]([C@@H]2O[C@H](COP(=O)([O-])OP(=O)(O)OC[C@H]3O[C@@H](n4cnc5c(N)ncnc54)[C@H](O)[C@@H]3O)[C@@H](O)[C@H]2O)c1 [NAD^+]
effect on Tm of Sirt1 (in words) [1]: slightly increased

O=c1c2cccnc2sn1Cc1ccc(C(F)(F)F)cc1 [PU141]
effect on Tm of Sirt1 (in words) [1]: no reasonable melting curve is obtained

CCCc1cc(=O)[nH]c(SCC(=O)Nc2cccc(SC#N)c2)n1 [S1th 1]
inhibition at 50 µM ([2]; 50 µM, primary screen): 82%
IC50 [2, 6]: 13 ± 0.6 µM
inhibition at 50 µM [3, 6]: 23%
inhibition at 50 µM [4, 6]: < 10%

N#CSc1cccc(NC(=O)c2ccc3c(c2)OCCO3)c1 [S1th 7]
IC50 ([2]; 3rd round): 6.34 µM and 6.3 µM
inhibition at 50 µM ([3]; 3rd round): < 10%
inhibition at 50 µM ([4]; 3rd round): < 10%

O=C(Nc1ccccc1-c1cn2c(CN3CCNCC3)csc2n1)c1cnc2ccccc2n1 [SRT1720]
effect on Tm of Sirt1 (in words) [1]: barely effected; also recorded: very small shift or no shift at all

Cc1cc(C)nc(SCC(=O)Nc2ncc(Cc3cccc4ccccc34)s2)n1 [SirReal2, reference compound]
γH2AX/H2AX levels without Camptothecin [5]: does not affect

adenosine diphosphate ribose [ADPR]
effect on Tm of Sirt1 (in words) [1]: strongly increased
stabilization (increase of Tm) of Sirt1 [1]: up to 4 K
